What was measured:
Format in all cases: functional
[1] = tested on: Staphylococcus aureus; experiment: Antibacterial activity against Staphylococcus aureus at 25 ug/ml after 24 hrs by agar well diffusion method; conditions: read-out: DIZ
[2] = tested on: Staphylococcus aureus; experiment: Antibacterial activity against Staphylococcus aureus at 50 ug/ml after 24 hrs by agar well diffusion method; conditions: read-out: DIZ
[3] = tested on: Staphylococcus aureus; experiment: Antibacterial activity against Staphylococcus aureus at 75 ug/ml after 24 hrs by agar well diffusion method; conditions: read-out: DIZ
[4] = tested on: Staphylococcus aureus; experiment: Antibacterial activity against Staphylococcus aureus at 100 ug/ml after 24 hrs by agar well diffusion method; conditions: read-out: DIZ
[5] = tested on: Bacillus subtilis; experiment: Antibacterial activity against Bacillus subtilis at 25 ug/ml after 24 hrs by agar well diffusion method; conditions: read-out: DIZ
[6] = tested on: Bacillus subtilis; experiment: Antibacterial activity against Bacillus subtilis at 50 ug/ml after 24 hrs by agar well diffusion method; conditions: read-out: DIZ
[7] = tested on: Bacillus subtilis; experiment: Antibacterial activity against Bacillus subtilis at 75 ug/ml after 24 hrs by agar well diffusion method; conditions: read-out: DIZ
[8] = tested on: Bacillus subtilis; experiment: Antibacterial activity against Bacillus subtilis at 100 ug/ml after 24 hrs by agar well diffusion method; conditions: read-out: DIZ
[9] = tested on: Escherichia coli; experiment: Antibacterial activity against Escherichia coli at 25 ug/ml after 24 hrs by agar well diffusion method; conditions: read-out: DIZ
[10] = tested on: Escherichia coli; experiment: Antibacterial activity against Escherichia coli at 50 ug/ml after 24 hrs by agar well diffusion method; conditions: read-out: DIZ
[11] = tested on: Escherichia coli; experiment: Antibacterial activity against Escherichia coli at 75 ug/ml after 24 hrs by agar well diffusion method; conditions: read-out: DIZ
[12] = tested on: Escherichia coli; experiment: Antibacterial activity against Escherichia coli at 100 ug/ml after 24 hrs by agar well diffusion method; conditions: read-out: DIZ
[13] = tested on: Klebsiella pneumoniae; experiment: Antibacterial activity against Klebsiella pneumoniae at 25 ug/ml after 24 hrs by agar well diffusion method; conditions: read-out: DIZ
[14] = tested on: Klebsiella pneumoniae; experiment: Antibacterial activity against Klebsiella pneumoniae at 50 ug/ml after 24 hrs by agar well diffusion method; conditions: read-out: DIZ
[15] = tested on: Klebsiella pneumoniae; experiment: Antibacterial activity against Klebsiella pneumoniae at 75 ug/ml after 24 hrs by agar well diffusion method; conditions: read-out: DIZ
[16] = tested on: Klebsiella pneumoniae; experiment: Antibacterial activity against Klebsiella pneumoniae at 100 ug/ml after 24 hrs by agar well diffusion method; conditions: read-out: DIZ
[17] = tested on: Staphylococcus aureus; experiment: Antibacterial activity against methicillin resistant Staphylococcus aureus MRSA090 at 25 ug/ml after 24 hrs by agar well diffusion method; conditions: MRSA090, 24 h, read-out: DIZ
[18] = tested on: Staphylococcus aureus; experiment: Antibacterial activity against methicillin resistant Staphylococcus aureus MRSA090 at 50 ug/ml after 24 hrs by agar well diffusion method; conditions: MRSA090, 24 h, read-out: DIZ
[19] = tested on: Staphylococcus aureus; experiment: Antibacterial activity against methicillin resistant Staphylococcus aureus MRSA090 at 75 ug/ml after 24 hrs by agar well diffusion method; conditions: MRSA090, 24 h, read-out: DIZ
[20] = tested on: Staphylococcus aureus; experiment: Antibacterial activity against methicillin resistant Staphylococcus aureus MRSA090 at 100 ug/ml after 24 hrs by agar well diffusion method; conditions: MRSA090, 24 h, read-out: DIZ
[21] = tested on: Aspergillus niger; experiment: Antifungal activity against Aspergillus niger at 25 ug/ml after 48 hrs by agar well diffusion method; conditions: read-out: DIZ
[22] = tested on: Aspergillus niger; experiment: Antifungal activity against Aspergillus niger at 50 ug/ml after 48 hrs by agar well diffusion method; conditions: read-out: DIZ
[23] = tested on: Aspergillus niger; experiment: Antifungal activity against Aspergillus niger at 75 ug/ml after 48 hrs by agar well diffusion method; conditions: read-out: DIZ
[24] = tested on: Aspergillus niger; experiment: Antifungal activity against Aspergillus niger at 100 ug/ml after 48 hrs by agar well diffusion method; conditions: read-out: DIZ
[25] = tested on: Fusarium verticillioides; experiment: Antifungal activity against Fusarium moniliforme at 25 ug/ml after 48 hrs by agar well diffusion method; conditions: read-out: DIZ
[26] = tested on: Fusarium verticillioides; experiment: Antifungal activity against Fusarium moniliforme at 50 ug/ml after 48 hrs by agar well diffusion method; conditions: read-out: DIZ
[27] = tested on: Fusarium verticillioides; experiment: Antifungal activity against Fusarium moniliforme at 75 ug/ml after 48 hrs by agar well diffusion method; conditions: read-out: DIZ
[28] = tested on: Fusarium verticillioides; experiment: Antifungal activity against Fusarium moniliforme at 100 ug/ml after 48 hrs by agar well diffusion method; conditions: read-out: DIZ
[29] = tested on: Fusarium oxysporum; experiment: Antifungal activity against Fusarium oxysporum at 25 ug/ml after 48 hrs by agar well diffusion method; conditions: read-out: DIZ
[30] = tested on: Fusarium oxysporum; experiment: Antifungal activity against Fusarium oxysporum at 50 ug/ml after 48 hrs by agar well diffusion method; conditions: read-out: DIZ
[31] = tested on: Fusarium oxysporum; experiment: Antifungal activity against Fusarium oxysporum at 75 ug/ml after 48 hrs by agar well diffusion method; conditions: read-out: DIZ
[32] = tested on: Fusarium oxysporum; experiment: Antifungal activity against Fusarium oxysporum at 100 ug/ml after 48 hrs by agar well diffusion method; conditions: read-out: DIZ

Q: With `COc1cc(/C=N/Nc2nc3cccc(C)c3s2)cc(Br)c1O` as the compound, how does the zone of inhibition at 25 µg/mL [1] read?
A: 8 mm

Q: What about the zone of inhibition at 50 µg/mL [2] of the same compound?
A: 10 mm

Q: What about the zone of inhibition at 75 µg/mL [3] of the same compound?
A: 13 mm

Q: And the zone of inhibition at 100 µg/mL [4]?
A: 16 mm

Q: And the zone of inhibition at 25 µg/mL [5]?
A: 5 mm

Q: What about the zone of inhibition at 50 µg/mL [6] of the same compound?
A: 9 mm

Q: And the zone of inhibition at 75 µg/mL [7]?
A: 13 mm

Q: What about the zone of inhibition at 100 µg/mL [8] of the same compound?
A: 17 mm

Q: What about the zone of inhibition at 25 µg/mL [9] of the same compound?
A: 11 mm

Q: What about the zone of inhibition at 50 µg/mL [10] of the same compound?
A: 15 mm

Q: What about the zone of inhibition at 75 µg/mL [11] of the same compound?
A: 19 mm

Q: What about the zone of inhibition at 100 µg/mL [12] of the same compound?
A: 21 mm

Q: And the zone of inhibition at 25 µg/mL [13]?
A: 9 mm

Q: What about the zone of inhibition at 50 µg/mL [14] of the same compound?
A: 14 mm

Q: And the zone of inhibition at 75 µg/mL [15]?
A: 17 mm

Q: And the zone of inhibition at 100 µg/mL [16]?
A: 21 mm

Q: What about the zone of inhibition at 25 µg/mL [17] of the same compound?
A: 7 mm

Q: What about the zone of inhibition at 50 µg/mL [18] of the same compound?
A: 13 mm

Q: And the zone of inhibition at 75 µg/mL [19]?
A: 19 mm

Q: What about the zone of inhibition at 100 µg/mL [20] of the same compound?
A: 20 mm

Q: What about the zone of inhibition at 25 µg/mL [21] of the same compound?
A: 7 mm

Q: And the zone of inhibition at 50 µg/mL [22]?
A: 11 mm

Q: And the zone of inhibition at 75 µg/mL [23]?
A: 16 mm

Q: What about the zone of inhibition at 100 µg/mL [24] of the same compound?
A: 18 mm

Q: What about the zone of inhibition at 25 µg/mL [25] of the same compound?
A: 9 mm

Q: What about the zone of inhibition at 50 µg/mL [26] of the same compound?
A: 13 mm

Q: What about the zone of inhibition at 75 µg/mL [27] of the same compound?
A: 17 mm

Q: What about the zone of inhibition at 100 µg/mL [28] of the same compound?
A: 20 mm

Q: And the zone of inhibition at 25 µg/mL [29]?
A: 8 mm

Q: And the zone of inhibition at 50 µg/mL [30]?
A: 14 mm

Q: And the zone of inhibition at 75 µg/mL [31]?
A: 17 mm

Q: What about the zone of inhibition at 100 µg/mL [32] of the same compound?
A: 20 mm
